Measurements published in a melting point compilation (Tetko et al.; mined from patent text by program, amines drawn as free bases though some values may be those of a salt).

SMILES	melting point
COc1c([N+](=O)[O-])cc(C)c(C)c1[N+](=O)[O-]	67.3 to 67.6 °C
O=[N+]([O-])c1ccc(N2CCCNCC2)cc1	115 to 116 °C
O=C(O)C(ON=c1c2nccc3cccc(c32)n2cccc12)c1ccccc1 (configuration not stated)	200 °C
COc1ccc(C(NC(=O)c2ccc(F)cc2)c2cccc(Nc3c(OC)c(=O)c3=O)c2)cc1 (configuration not stated)	115 to 116 °C
Cc1nc2sccn2c(=O)c1CCN1CCC(c2noc3cc(F)ccc23)CC1	165 °C
NC(=O)c1ccc(F)c(-c2cccc3cc(Cc4cccc(C(F)(F)F)c4)sc23)c1	139 to 140 °C
COc1cc2c(cc1Nc1ncc(Cl)c(Nc3cc(C(N)=O)ccc3OC)n1)CCN(CCS(C)(=O)=O)CC2	232 to 243 °C
Nc1nc2c(s1)CCN(CC=Cc1cccc(OCc3ccccc3)c1)CC2	78 to 80 °C
Cc1c(-c2ncncc2Br)ssc1=S	122 °C
CC#CC(O)(Cn1cncn1)c1ccc(Oc2ccc(Cl)cc2)cc1C(F)(F)F (configuration not stated)	137 °C
O=C1CSC(=S)N1N=c1sc2ccc(Cl)cc2s1	312 to 314 °C
CCOC(=O)c1cn(C(C)C(OC)OC)c2c(F)c(F)c(F)cc2c1=O (configuration not stated)	125 to 126 °C
O=C1Cc2cc(F)ccc2N1CCCl	127 °C
CCCOc1ccc(S(=O)(=O)N2CCN(CC)CC2)cc1C(=O)Nc1c(C(N)=O)nn(Cc2ccccn2)c1CC	191 to 192 °C
CCOC(=O)c1ccccc1NC(=O)C(F)(F)F	78 °C
O=C1c2ccccc2C(=O)N1c1cc(CCl)ccn1	152 to 153 °C
Nc1nc(OC(F)F)cc(OC(F)F)n1	67 to 69 °C
O=C1CCC2CCC(=O)N12	179 to 182 °C
CC1Cc2c(cc(O)cc2C(=O)O)O1 (configuration not stated)	225 to 227 °C
Clc1ccc(Cl)c(COC2COC(c3ccccc3)OC2)c1Cl (configuration not stated)	93.5 to 94 °C
COc1ccc(C2CCC(c3ccc4ccccc4c3)O2)cc1OC (configuration not stated)	74 to 77 °C
COc1ccc(CCCl)cc1O	53 to 54 °C
CCCCCCCCCCCCCCCCSCC(O)CO (configuration not stated)	72 to 74 °C
Cc1nn(-c2ccc(F)cc2)c(C)c1C(=O)Nc1ccc(OCC(C)(C)C)c(C#N)c1	174 to 175 °C
O=C(NC1Cc2ccccc2C1)C(F)(F)F	160 °C
CC1(C)CCC(C)(C)C(=O)C1=O	109 to 111 °C

SMILES	melting point
COc1ccc(-c2ccc(O)c(C34CC5CC(CC(C5)C3)C4)c2)cc1C=C1SC(N2CCOCC2)=NC1=O	355 to 360 °C
COc1ccc(CCNCC(O)c2cccc(Cl)c2)cc1 (configuration not stated)	101 to 103 °C
CCC(C)(C)c1cc(-c2cccc(CC3SC(N4CCCC4)=NC3=O)c2)ccc1O (configuration not stated)	216 to 219 °C
CC(C)(C)c1cc2c(c(C(C)(C)C)c1)O[Si](c1ccccc1)(c1ccccc1)Oc1c(cc(C(C)(C)C)cc1C(C)(C)C)S2	202 to 205 °C
Cc1c(CO)nc2n1CCc1ccccc1C2=C1CCN(C)CC1	167 °C
CCNc1nc(C(F)(F)F)nc(NCC)c1[N+](=O)[O-]	60 to 65 °C
Clc1ccc2c(c1)N=C(NCCc1cccnc1)c1ccccc1N2	195 to 196 °C
CC(=O)NC(CSC(c1ccccc1)(c1ccccc1)c1ccccc1)C(=O)NCCSC(=O)C(C)C (configuration not stated)	147 to 148 °C
CC(C)(C)OC(=O)N1CC(CC=O)C1	52 to 54 °C
COc1ccc(Nc2ncnc(NCCO)n2)cc1	160 to 164 °C
COc1ccc(C2CC(c3ccccc3OC)=NN2c2ccc(C(=O)O)cc2)cc1 (configuration not stated)	243 °C
CC(=O)CC(=O)C=Cc1c[nH]c2ccccc12	155 to 158 °C
COCC(=O)Nc1nc2ccc([N+](=O)[O-])cc2s1	230 to 233 °C
CCOc1c(C)c(N2CCN(c3ccc(C)cc3)CC2)c(C)c2c1OC(C)C2 (configuration not stated)	96 to 98 °C
COC(=O)C(=COC(F)F)c1ccccc1CBr	63 to 67 °C
CCOC(=O)c1cc(=O)cc(-c2cccc([N+](=O)[O-])c2)o1	148 to 152 °C
CN(C)N1C2=NCCN2C(=O)c2ccccc21	197 to 198 °C
CS(=O)(=O)c1ccc(-c2cc(F)c(F)cc2Br)cc1	158 to 160 °C
CC(=O)c1ccc2c(c1)ncn2-c1cccc(C(=O)OC2CCN(C)CC2)c1	106 to 107 °C
CCOC(=O)c1cc2c3ccccc3[nH]c(=O)n2n1	242 to 244 °C
Cc1cc(-c2cc(C(F)(F)F)n3ncc(C(=O)O)c3n2)ccc1Cl	243 °C
Cn1cncc1C(O)(c1ccc(F)cc1)c1ccc2nc(Cl)nc(-c3cccc(Cl)c3)c2c1 (configuration not stated)	212 °C
CCCCNC(=O)NS(=O)(=O)c1c(SC)cccc1SC	151 to 154 °C
CCCCCc1ccc(OCC(O)CCCCCCC(=O)O)cc1 (configuration not stated)	105 to 106 °C
NC(N)=Nc1nc(-c2cccc(CNC(=O)CSCc3ccco3)n2)cs1	182 °C
Cc1cc2c(cc1Oc1nnnn1-c1ccccc1)[C@@H](c1ccccc1)CN(C)CC2	140 to 142 °C

SMILES	melting point
CSc1nc2c(F)cccc2s1	30 °C
O=C(O)COc1ccc2c(c1)CC(NS(=O)(=O)c1ccc(Cl)cc1)C2 (configuration not stated)	170 to 172 °C
CCOC(=O)c1cc2cc([Si](C)(C)C)ccc2[nH]1	114 to 115 °C
O=C1NC(=O)C(c2ccc(Br)s2)O1 (configuration not stated)	139 to 140 °C
CC#CCOc1ccc(S(=O)(=O)NC2(C(=O)O)CCCCC2)cc1	112 to 114 °C
COC(=O)C=Cc1ccc2c(c1)Cc1cc(C=CC(=O)OC)ccc1-2	206 to 209 °C
O=C1C(CBr)=C(CBr)C(=O)C(CBr)=C1CBr	169 to 172 °C
CCN(CC)C(=O)c1ccoc1-c1ccc(C=O)cc1	64 to 66 °C
CC(C)(C)c1nn(-c2c(F)cc(Cl)c3nc(Cl)sc23)c(=O)o1	157 to 158 °C
O=C1C(c2ccccc2)=C(c2ccccc2)C(=O)N1Cc1ccccc1F	113 to 114 °C
COc1ccc(CC(C)NCC(O)c2cccc(Cl)c2)cc1 (configuration not stated)	80 to 87 °C
COc1ccc(Cl)cc1NC(=O)[C@H]1[C@H](c2ccc(S(N)(=O)=O)c(C)c2)C1(C)C (relative stereo)	118 to 121 °C
CCCCCCCCCCCCC(=O)NN	101 to 104 °C
Cc1nc2c(O[C@@H]3c4ccccc4C[C@H]3OS(C)(=O)=O)cccn2c1C=O (relative stereo)	158 to 160 °C
COc1ccc2c(c1)N1CCOCC1C[N+]([O-])=C2c1ccco1 (configuration not stated)	183 to 186 °C
CC(=O)C=Cc1ccc(Cl)c(Cl)c1	53 to 55 °C
O=C(c1ccccc1)c1cnc2c(c1)CCC(c1ccc(Cl)c(Cl)c1)O2 (configuration not stated)	155 to 158 °C
O=C1[C@@H](O)CCN1CC#CCn1ccnc1	127 to 128 °C
O=C(O)CCCCc1ccc(NS(=O)(=O)c2ccc(Cl)cc2)cn1	145 to 147 °C
CC(C)(C)OC(=O)Nc1cc(OCC2COC(C)(C)O2)c(C#Cc2ccccc2)cc1[N+](=O)[O-] (racemic)	32 °C
CCOC(=O)c1cc(NCc2ccccc2)c(Nc2ccc3ccccc3c2)c(S(N)(=O)=O)c1	199 to 201 °C
COC(=O)CCc1ccc(S(=O)(=O)c2ccc(NC(=O)c3ccc(Cl)c(Cl)c3)cn2)cc1	165 to 166 °C
COc1cccc(C(=O)c2ccc(OCc3nc(-c4ccccc4)oc3C)cc2)c1O	152 to 153 °C
O=C1OCCC12Oc1ccc([N+](=O)[O-])cc1C2=O (configuration not stated)	199 to 200 °C
O=C(O)c1cccc2c(=O)cc(-c3ccc(OCc4ccccc4)cc3)oc12	145 to 147 °C
CN(C)CC(=O)Nc1cccc(NC(=O)Nc2ccc(N(CCCl)CCCl)cc2)c1	62 to 64 °C

SMILES	melting point
N#Cc1c[nH]c(Cl)c1-c1ccccc1	140 to 142 °C
CCOC(=O)c1c(C)nc(-c2ccccc2)nc1-c1cc([N+](=O)[O-])ccc1S(C)(=O)=O	150 to 151 °C
ClCCOc1cccc2c1OCCO2	73 °C
CSc1ccc(CSc2nnc(-c3ccc4c(c3)CCO4)o2)cc1C(F)(F)F	108 to 109 °C
c1cn(CCc2nc(-c3ccc4c(c3)OCO4)c3cc4c(cc3n2)OCO4)cn1	160 to 163 °C
COC(=O)c1nn(-c2ccccc2)c2c1CCc1cc(Cl)ccc1-2	190 to 192 °C
CCCCCC(=O)OC1(c2nc(OC)cc(OC)n2)OC(=O)c2c(Cl)ccc(Cl)c21 (configuration not stated)	103 to 105 °C
Cc1nc(C)c(Cl)c(NCc2ccc(OCc3ccccc3)c(OCC(F)(F)F)c2)n1	135 to 138 °C
Nc1nc(Oc2ccccc2)c2ncn(CCC(CO)CO)c2n1	173 to 175 °C
COc1ccc(CCN(C)C)c2[nH]c(=O)[nH]c12	197 to 199 °C
Cc1[nH]c(C)c2c1C(C)(C)CC2(C)C#N (configuration not stated)	130 to 140 °C
C1=CC(CCC2c3ccccc3-c3ccccc32)c2ccccc21 (configuration not stated)	79 to 80 °C
Cc1ccc2c(c1)C=Cc1cc(C)ccc1C2c1cn(Cc2ccc(C(=O)Nc3nc(CC(=O)Nc4nc(CC(=O)O)cs4)cs3)o2)c(=O)[nH]c1=S	253 °C
CC(=Cc1cc(-n2[nH]c3c(c2=O)CCCC3)ccc1Cl)C(=O)O	278 °C
CON=Cc1cc([N+](=O)[O-])c(Cl)cc1Cl	129 to 132 °C
Cc1oc(-c2ccccc2Cl)nc1CCOc1ccc([N+](=O)[O-])cn1	100 to 101 °C
COc1ccc(NC(=O)Oc2ccc3c(c2)N(Cc2ccccc2)CCC3)cc1	170 °C
O=C(NCCCCCCCCc1ccccc1)c1cc(-c2cccc(C(F)(F)F)c2)cc(-c2cccc(C(F)(F)F)c2OCCCCc2nnn[nH]2)c1	145 to 151 °C
O=C1OC(=O)c2c1cccc2C(F)(F)F	65 to 67 °C
O=C(OCC1CCCO1)C1Oc2ccccc2Cc2ccccc2O1 (configuration not stated)	83 to 85 °C
CCCCCCCCCCc1ccc(C[N+](=O)[O-])cc1	50 °C
N#Cc1cc(Cl)c(NC(=O)NC(=O)c2ccccc2Cl)cc1Cl	244 to 247 °C
CCN(CC)C(=O)Cc1c(-c2ccc(Cl)cc2)nc2c(C)cc(C)nn12	162 to 165 °C
CCC(CC)Nc1c([N+](=O)[O-])cc(C)c(CO)c1[N+](=O)[O-]	51 to 54 °C
